# Data taken from paper PMC13308190, “Endothelial progenitor cell susceptibility to DNA damaging and DDR-modulating compounds determines endothelial differentiation accuracy” (Stem Cell Research & Therapy, 2026).
# Key:
# Format in all cases: cell-based, mouse
# [1] = system: mESC; experiment: RT-qPCR mRNA expression; conditions: for Cdkn1a mRNA / Cdkn2a mRNA / Glb1 mRNA / Il6 mRNA / Il8 mRNA / Tp53 mRNA: Fig 7A; for Atp7a mRNA / Atp7b mRNA / Ctr2 mRNA / Mdr1 mRNA / Mrp1 mRNA / Oct2 mRNA: Fig 2D
# Description: Total RNA was purified using the RNeasy Mini Kit (Qiagen, Hilden, Germany). Reverse transcriptase (RT) reaction was performed with the HighCapacity cDNA Reverse Transcription Kit (Applied Biosystems, Darmstadt, Germany) using 900–2000 ng of RNA. Quantitative RT-qPCR analysis was performed using following conditions: (1) 95 °C–10 min; (2) 45 amplification cycles with 95 °C–15 s, 55 °C–15 s, and 72 °C–17 s; (3) 95 °C–1 min, 55 °C–1 min, 65 °C–5 s. If not stated otherwise, analyses were performed in technical triplicates using pooled samples from two independent experiments (each performed with biological duplicates) by use of a CFX96 cycler (BioRad) and the SensiMix SYBR Kit (Bioline, London, UK). The primers used for mRNA expression analyses are listed in Supplementary Table 1. To ensure the specificity of the amplification product, melting curves were recorded at the end of the run. mRNA expression levels were normalized to β-Actin and Gapdh. Relative mRNA expression in mESC or corresponding untreated controls was set to 1.0. Only changes in gene expression of ≤ 0.5- and ≥ 2-fold were considered as biologically relevant. Fold-changes in gene expression are summarized in Supplementary Table 2.
# [2] = system: EC d4; experiment: EdU incorporation (S-phase activity); conditions: EC d4 48 h
# Description: S-phase activity of cells was monitored by measuring EdU incorporation using the EdU-Click 488 assay according to the manufacturer’s protocol. Briefly, cells were pulse-treated with 5-ethynyl-2′-deoxyuridine (EdU) for 3 h. Alexa Fluor 488-conjugated reaction cocktail was added (30 min, RT) and nuclei were counterstained with DAPI. The percentage of EdU-positive area/DAPI-positive area was calculated by fluorescence microscopy (Olympus BX43, 20x objective).
# [3] = system: mESC; experiment: Western blot protein expression (densitometry); conditions: mESC 24 h
# Description: (§1) Total protein cell extracts were obtained upon sonication in RIPA buffer (EpiShearTM Probe sonicator, Active Motif [La Hulpe, Belgium]). Protein concentrations were determined using the DC Protein Assay (BioRad [Munich, Germany]). Extracts were supplemented with Roti®-Load buffer (Carl Roth GmbH [Karlsruhe, Germany]) followed by heating (95 °C for 5 min). 20 µg of protein was separated by SDS-PAGE and transferred onto nitrocellulose membrane. After blocking (5% non-fat milk in TBS/0.1% Tween 20 or 5% BSA in TBS/0.1% Tween 20) (1 h, RT) membrane was incubated with primary antibodies (1:500–5000; overnight, 4 °C). After washing with TBS/0.1% Tween 20, peroxidase-conjugated secondary antibody (1:2000) was added (2 h, RT) and bands were visualized using ChemiDoxTM Touch imaging system (BioRad, Munich, Germany).
# [4] = system: EC d4 (endothelial progenitor cells); experiment: Western blot protein expression (densitometry); conditions: EC d4 48 h; for CHK1 protein / RAD51 protein / gH2AX protein / p-CHK2 protein / p-KAP1 protein / p-RPA32 protein / p-p53 protein: Fig 5D
# Description: as §1
# [5] = system: EC d6 (endothelial-like cells); experiment: Western blot protein expression (densitometry); conditions: EC d6 24 h; for CHK1 protein / RAD51 protein / gH2AX protein / p-CHK2 protein / p-KAP1 protein / p-RPA32 protein / p-p53 protein: Fig 5D
# Description: as §1
# [6] = system: mESC; experiment: AlamarBlue cell viability; conditions: Mus musculus
# Description: (§2) Drug-induced cytotoxicity was monitored by analyzing cell viability using the AlamarBlue assay, which measures the reduction of the non-fluorescent dye resazurin (Sigma [Steinheim, Germany]) to fluorescent resorufin by living (i.e. metabolically active) cells. Fluorescence was measured in quadruplicates (excitation: 535 nm, emission: 590 nm (Tecan infinite 200, Tecan, Männedorf, Switzerland)). Relative cell viability of the untreated control was set to 100%.
# [7] = system: EC d4 (endothelial progenitor cells); experiment: AlamarBlue cell viability; conditions: 48 h treatment
# Description: as §2
# [8] = mESC + 0.05 µM 24 h + 24 h post incubation
# [9] = mESC + 0.1 µM 24 h + 24 h post incubation
# [10] = Fig 5D, concentration 1 (Dox 1/B02 1/EST 1)
# [11] = Fig 5D, concentration 2 (Dox 2/B02 2/EST 2)
# [12] = concentration 1 (Dox 1/B02 1/EST 1)
# [13] = concentration 2 (Dox 2/B02 2/EST 2)
structure (smiles),measurement,setting,value
"COc1cccc2c1C(=O)c1c(O)c3c(c(O)c1C2=O)C[C@@](O)(C(=O)CO)C[C@@H]3O[C@H]1C[C@H](N)[C@H](O)[C@H](C)O1 [Dox, doxorubicin]",Cdkn1a mRNA,[1]; [8],2.20 Fold of untreated control
same,Cdkn2a mRNA,[1]; [8],2.02 Fold of untreated control
same,Glb1 mRNA,[1]; [8],1.22 Fold of untreated control
same,Il6 mRNA,[1]; [8],2.74 Fold of untreated control
same,Il8 mRNA,[1]; [8],1.29 Fold of untreated control
same,Tp53 mRNA,[1]; [8],0.86 Fold of untreated control
same,Atp7a mRNA,[1]; mESC + 0.05 µM 24 h,2.50 Fold of control
same,Atp7b mRNA,[1]; mESC + 0.05 µM 24 h,1.82 Fold of control
same,Ctr2 mRNA,[1]; mESC + 0.05 µM 24 h,2.95 Fold of control
same,Mdr1 mRNA,[1]; mESC + 0.05 µM 24 h,4.03 Fold of control
same,Mrp1 mRNA,[1]; mESC + 0.05 µM 24 h,2.38 Fold of control
same,Oct2 mRNA,[1]; mESC + 0.05 µM 24 h,5.33 Fold of control
same,Gpx1 mRNA,"[1]; mESC + 0.05 µM 24 h, Fig 6C",1.54 Fold of untreated control
same,Gpx4 mRNA,"[1]; mESC + 0.05 µM 24 h, Fig 6C",0.62 Fold of untreated control
same,Gstm1 mRNA,"[1]; mESC + 0.05 µM 24 h, Fig 6C",2.08 Fold of untreated control
same,Hmox1 mRNA,"[1]; mESC + 0.05 µM 24 h, Fig 6C",1.14 Fold of untreated control
same,Pgc1a mRNA,"[1]; mESC + 0.05 µM 24 h, Fig 6C",1.78 Fold of untreated control
same,Sod1 mRNA,"[1]; mESC + 0.05 µM 24 h, Fig 6C",1.30 Fold of untreated control
same,Sod2 mRNA,"[1]; mESC + 0.05 µM 24 h, Fig 6C",1.10 Fold of untreated control
same,Gpx4 mRNA,"[1]; mESC + 0.05 µM 24 h, Fig 6F",1.03 Fold of untreated control
same,Slc7a11 mRNA,"[1]; mESC + 0.05 µM 24 h, Fig 6F",0.99 Fold of untreated control
same,Cdkn1a mRNA,[1]; [9],2.09 Fold of untreated control
same,Cdkn2a mRNA,[1]; [9],2.49 Fold of untreated control
same,Glb1 mRNA,[1]; [9],1.35 Fold of untreated control
same,Il6 mRNA,[1]; [9],2.84 Fold of untreated control
same,Il8 mRNA,[1]; [9],1.07 Fold of untreated control
same,Tp53 mRNA,[1]; [9],0.87 Fold of untreated control
same,Atp7a mRNA,[1]; mESC + 0.1 µM 24 h,3.09 Fold of control
same,Atp7b mRNA,[1]; mESC + 0.1 µM 24 h,2.42 Fold of control
same,Ctr2 mRNA,[1]; mESC + 0.1 µM 24 h,4.05 Fold of control
same,Mdr1 mRNA,[1]; mESC + 0.1 µM 24 h,6.26 Fold of control
same,Mrp1 mRNA,[1]; mESC + 0.1 µM 24 h,2.51 Fold of control
same,Oct2 mRNA,[1]; mESC + 0.1 µM 24 h,0.75 Fold of control
same,Brca1 mRNA,"[1]; mESC + 0.1 µM 24 h, Fig 5C",1.93 Fold of mESC
same,Chk1 mRNA,"[1]; mESC + 0.1 µM 24 h, Fig 5C",0.68 Fold of mESC
same,Rad51 mRNA,"[1]; mESC + 0.1 µM 24 h, Fig 5C",1.36 Fold of mESC
same,Pgc1a mRNA,"[1]; mESC + 0.1 µM 24 h, Fig 6D",10.69 Fold of untreated control
same,Gpx4 mRNA,"[1]; mESC + 0.1 µM 24 h, Fig 6F",1.05 Fold of untreated control
same,Slc7a11 mRNA,"[1]; mESC + 0.1 µM 24 h, Fig 6F",1.20 Fold of untreated control
same,S-phase activity (EdU-positive cells),[2],decrease in S-phase activity
same,H3ac protein,[3]; Fig 1D,0.3 Fold of mESC
same,H4ac protein,[3]; Fig 1D,0.0 Fold of mESC
same,aTubac (acetylated α-Tubulin) protein,[3]; Fig 1D,0.5 Fold of mESC
same,CHK1 protein,"[3]; Fig 4H, Dox 2",1.3 Fold of mESC
same,p-ATR protein,"[3]; Fig 4H, Dox 2",2.7 Fold of mESC
same,p-CHK1 protein,"[3]; Fig 4H, Dox 2",4.4 Fold of mESC
same,p-RPA32 protein,"[3]; Fig 4H, Dox 2",1.5 Fold of mESC
same,p-p53 protein,"[3]; Fig 4H, Dox 2",6.5 Fold of mESC
same,CHK1 protein,"[3]; Fig 4H, Eto, Dox 1, B02, EST",1.0 Fold of mESC
same,p-ATR protein,"[3]; Fig 4H, Eto, Dox 1, B02, EST",1.9 Fold of mESC
same,p-CHK1 protein,"[3]; Fig 4H, Eto, Dox 1, B02, EST",2.4 Fold of mESC
same,p-RPA32 protein,"[3]; Fig 4H, Eto, Dox 1, B02, EST",1.1 Fold of mESC
same,p-p53 protein,"[3]; Fig 4H, Eto, Dox 1, B02, EST",6.4 Fold of mESC
same,CHK1 protein,[3]; [10],1.7 Fold of mESC
same,RAD51 protein,[3]; [10],1.2 Fold of mESC
same,gH2AX protein,[3]; [10],69.7 Fold of mESC
same,p-CHK2 protein,[3]; [10],1.1 Fold of mESC
same,p-KAP1 protein,[3]; [10],31.2 Fold of mESC
same,p-RPA32 protein,[3]; [10],1.4 Fold of mESC
same,p-p53 protein,[3]; [10],4.2 Fold of mESC
same,CHK1 protein,[3]; [11],1.8 Fold of mESC
same,RAD51 protein,[3]; [11],0.9 Fold of mESC
same,gH2AX protein,[3]; [11],174.9 Fold of mESC
same,p-CHK2 protein,[3]; [11],1.5 Fold of mESC
same,p-KAP1 protein,[3]; [11],59.9 Fold of mESC
same,p-RPA32 protein,[3]; [11],1.8 Fold of mESC
same,p-p53 protein,[3]; [11],5.7 Fold of mESC
same,AMPKa protein,[3]; Fig 6E,0.2 Fold of mESC
same,GSK3b protein,[3]; Fig 6E,0.8 Fold of mESC
same,p-p70SK protein,[3]; Fig 6E,1.1 Fold of mESC
same,H3ac protein,[4]; Fig 1D,0.0 Fold of mESC
same,H4ac protein,[4]; Fig 1D,0.0 Fold of mESC
same,aTubac (acetylated α-Tubulin) protein,[4]; Fig 1D,0.3 Fold of mESC
same,CHK1 protein,[4]; [12],2.1 Fold of mESC
same,RAD51 protein,[4]; [12],0.1 Fold of mESC
same,gH2AX protein,[4]; [12],142.6 Fold of mESC
same,p-CHK2 protein,[4]; [12],0.7 Fold of mESC
same,p-KAP1 protein,[4]; [12],0.0 Fold of mESC
same,p-RPA32 protein,[4]; [12],0.5 Fold of mESC
same,p-p53 protein,[4]; [12],2.0 Fold of mESC
same,CHK1 protein,[4]; [13],0.2 Fold of mESC
same,RAD51 protein,[4]; [13],< 0.1 Fold of mESC
same,gH2AX protein,[4]; [13],44.9 Fold of mESC
same,p-CHK2 protein,[4]; [13],0.2 Fold of mESC
same,p-KAP1 protein,[4]; [13],0.0 Fold of mESC
same,p-RPA32 protein,[4]; [13],0.1 Fold of mESC
same,p-p53 protein,[4]; [13],2.6 Fold of mESC
same,AMPKa protein,[4]; Fig 6E,0.7 Fold of mESC
same,GSK3b protein,[4]; Fig 6E,5.7 Fold of mESC
same,p-p70SK protein,[4]; Fig 6E,0.5 Fold of mESC
same,H3ac protein,[5]; Fig 1D,0.0 Fold of mESC
same,H4ac protein,[5]; Fig 1D,0.0 Fold of mESC
same,aTubac (acetylated α-Tubulin) protein,[5]; Fig 1D,0.6 Fold of mESC
same,CHK1 protein,[5]; [12],1.7 Fold of mESC
same,RAD51 protein,[5]; [12],1.7 Fold of mESC
same,gH2AX protein,[5]; [12],4.6 Fold of mESC
same,p-CHK2 protein,[5]; [12],0.8 Fold of mESC
same,p-KAP1 protein,[5]; [12],0.0 Fold of mESC
same,p-RPA32 protein,[5]; [12],0.2 Fold of mESC
same,p-p53 protein,[5]; [12],4.2 Fold of mESC
same,CHK1 protein,[5]; [13],1.0 Fold of mESC
same,RAD51 protein,[5]; [13],1.3 Fold of mESC
same,gH2AX protein,[5]; [13],31.8 Fold of mESC
same,p-CHK2 protein,[5]; [13],0.5 Fold of mESC
same,p-KAP1 protein,[5]; [13],0.0 Fold of mESC
same,p-RPA32 protein,[5]; [13],0.1 Fold of mESC
same,p-p53 protein,[5]; [13],3.1 Fold of mESC
same,AMPKa protein,[5]; Fig 6E,0.6 Fold of mESC
same,GSK3b protein,[5]; Fig 6E,4.3 Fold of mESC
same,p-p70SK protein,[5]; Fig 6E,2.8 Fold of mESC
same,IC50,[6]; 24 h treatment,170 nM
same,IC50,[6]; 72 h treatment,9 nM
same,susceptibility (cell viability) of EC d4 as compared to both mESC and EC d6,[7],significant higher
